Measurements reported in ChEMBL document CHEMBL1201862, “PubChem BioAssay data set” (2004).
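Interpolation was linear, between the two tested concentrations surrounding the appropriate level; five concentrations were tested over 48 hours in 96-well plates. GI50: concentration for 50% inhibition of growth.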 Active and inactive are the calls of the source. Cut-off read from the data, not from the text of the source: active = GI50 up to about 1.1 µM and inactive = higher.

Legend:
Assay in all cases: NCI tumour cell line growth inhibition, 48 h
KM-20L2 = system: KM-20L2
DMS-114 = system: DMS-114
CCRF-CEM = system: CCRF-CEM
SF-539 = system: SF-539
SK-MEL-2 = system: SK-MEL-2
RPMI-8226 = system: RPMI-8226
OVCAR-8 = system: OVCAR-8
A549 = system: A549
SW-620 = system: SW-620
HOP-62 = system: HOP-62
SF-295 = system: SF-295
SK-MEL-5 = system: SK-MEL-5
NCI-H522 = system: NCI-H522
A498 = system: A498
ACHN = system: ACHN
SNB-78 = system: SNB-78
NCI-H460 = system: NCI-H460
KM12 = system: KM12
RXF 631 = system: RXF 631
IGROV-1 = system: IGROV-1
CAKI-1 = system: CAKI-1
COLO 205 = system: COLO 205
DMS-273 = system: DMS-273
UO-31 = system: UO-31
SNB-75 = system: SNB-75
SF-268 = system: SF-268
OVCAR-5 = system: OVCAR-5
NCI-H226 = system: NCI-H226
MOLT-4 = system: MOLT-4
HCT-15 = system: HCT-15
LOX IMVI = system: LOX IMVI
HOP-92 = system: HOP-92
SK-OV-3 = system: SK-OV-3
LXFL 529 = system: LXFL 529
HCT-116 = system: HCT-116
UACC-62 = system: UACC-62
TK-10 = system: TK-10
DLD-1 = system: DLD-1
SK-MEL-28 = system: SK-MEL-28
HCC 2998 = system: HCC 2998
HL-60 = system: HL-60
OVCAR-4 = system: OVCAR-4
HT-29 = system: HT-29
SN12C = system: SN12C
Malme-3M = system: Malme-3M
EKVX = system: EKVX
786-0 = system: 786-0
UACC-257 = system: UACC-257
NCI-H23 = system: NCI-H23
SNB-19 = system: SNB-19
OVCAR-3 = system: OVCAR-3
HOP-18 = system: HOP-18
K562 = system: K562
M14 = system: M14
M19-MEL = system: M19-MEL
RXF 393 = system: RXF 393
U-251 = system: U-251

CC(C)C(=O)N1Cc2cc(Cl)cc(Cl)c2OC(=O)c2ccccc21
GI50 (KM-20L2): 23.7 µM (inactive)
GI50 (DMS-114): 30.1 µM (inactive)
GI50 (CCRF-CEM): 27 µM (inactive)
GI50 (SF-539): 18.7 µM (inactive)
GI50 (SK-MEL-2): 21.5 µM (inactive)
GI50 (RPMI-8226): 25.5 µM (inactive)
GI50 (OVCAR-8): 33.7 µM (inactive)
GI50 (A549): 31 µM (inactive)
GI50 (SW-620): 33 µM (inactive)
GI50 (HOP-62): 31.2 µM (inactive)
GI50 (SF-295): 26.7 µM (inactive)
GI50 (SK-MEL-5): 19.2 µM (inactive)
GI50 (NCI-H522): 21 µM (inactive)
GI50 (A498): 27.5 µM (inactive)
GI50 (ACHN): 24.5 µM (inactive)
GI50 (SNB-78): 67.9 µM (inactive)
GI50 (NCI-H460): 33 µM (inactive)
GI50 (KM12): 32.8 µM (inactive)
GI50 (RXF 631): 40.3 µM (inactive)
GI50 (IGROV-1): 29.5 µM (inactive)
GI50 (CAKI-1): 22.8 µM (inactive)
GI50 (COLO 205): 59.3 µM (inactive)
GI50 (DMS-273): 38.7 µM (inactive)
GI50 (UO-31): 31.7 µM (inactive)
GI50 (SNB-75): 30.3 µM (inactive)
GI50 (SF-268): 19.6 µM (inactive)
GI50 (OVCAR-5): 27 µM (inactive)
GI50 (NCI-H226): 23.1 µM (inactive)
GI50 (MOLT-4): 22.6 µM (inactive)
GI50 (HCT-15): 27.5 µM
GI50 (LOX IMVI): 23.3 µM (inactive)
GI50 (HOP-92): 24.7 µM (inactive)
GI50 (SK-OV-3): 25.9 µM (inactive)
GI50 (LXFL 529): 18.3 µM (inactive)
GI50 (HCT-116): 38 µM (inactive)
GI50 (UACC-62): 19.8 µM (inactive)
GI50 (TK-10): 29.7 µM (inactive)
GI50 (DLD-1): 29.9 µM (inactive)
GI50 (SK-MEL-28): 42.4 µM (inactive)
GI50 (HCC 2998): 28.4 µM (inactive)
GI50 (HL-60): 22.6 µM (inactive)
GI50 (OVCAR-4): 28.8 µM (inactive)
GI50 (HT-29): 34 µM (inactive)
GI50 (SN12C): 32.7 µM (inactive)
GI50 (Malme-3M): 20.9 µM (inactive)
GI50 (EKVX): 27.7 µM (inactive)
GI50 (786-0): 35 µM (inactive)
GI50 (UACC-257): 17.2 µM (inactive)
GI50 (NCI-H23): 66.2 µM (inactive)
GI50 (SNB-19): 35.2 µM (inactive)
GI50 (OVCAR-3): 22 µM (inactive)
GI50 (HOP-18): 25.6 µM (inactive)
GI50 (K562): 51.1 µM (inactive)
GI50 (M14): 25.8 µM (inactive)

CCC1(CN(C)C)CC/C(=C\c2ccc(OC)cc2)C1=O (stereo not given)
GI50 (KM-20L2): > 100 µM (inactive)
GI50 (DMS-114): 54.1 µM (inactive)
GI50 (CCRF-CEM): 30 µM (inactive)
GI50 (SF-539): > 100 µM (inactive)
GI50 (SK-MEL-2): > 100 µM (inactive)
GI50 (RPMI-8226): 17.4 µM (inactive)
GI50 (OVCAR-8): > 100 µM (inactive)
GI50 (A549): > 100 µM (inactive)
GI50 (SW-620): > 100 µM (inactive)
GI50 (HOP-62): > 100 µM (inactive)
GI50 (SF-295): > 100 µM (inactive)
GI50 (SK-MEL-5): 58.6 µM (inactive)
GI50 (NCI-H522): 31.5 µM (inactive)
GI50 (A498): 84.1 µM (inactive)
GI50 (ACHN): > 100 µM (inactive)
GI50 (SNB-78): > 100 µM (inactive)
GI50 (NCI-H460): > 100 µM (inactive)
GI50 (KM12): > 100 µM (inactive)
GI50 (RXF 631): 62.7 µM (inactive)
GI50 (IGROV-1): > 100 µM (inactive)
GI50 (CAKI-1): > 100 µM (inactive)
GI50 (COLO 205): 80.7 µM (inactive)
GI50 (DMS-273): > 100 µM (inactive)
GI50 (UO-31): > 100 µM (inactive)
GI50 (SNB-75): > 100 µM (inactive)
GI50 (SF-268): > 100 µM (inactive)
GI50 (OVCAR-5): > 100 µM (inactive)
GI50 (NCI-H226): > 100 µM (inactive)
GI50 (MOLT-4): 3.14 µM (inactive)
GI50 (HCT-15): 23.5 µM
GI50 (LOX IMVI): > 100 µM (inactive)
GI50 (HOP-92): > 100 µM (inactive)
GI50 (LXFL 529): 94 µM (inactive)
GI50 (HCT-116): 93.1 µM (inactive)
GI50 (UACC-62): > 100 µM (inactive)
GI50 (TK-10): > 100 µM (inactive)
GI50 (DLD-1): 58.3 µM (inactive)
GI50 (SK-MEL-28): > 100 µM (inactive)
GI50 (HCC 2998): > 100 µM (inactive)
GI50 (M19-MEL): > 100 µM (inactive)
GI50 (OVCAR-4): > 100 µM (inactive)
GI50 (HT-29): 44.9 µM (inactive)
GI50 (SN12C): > 100 µM (inactive)
GI50 (RXF 393): > 100 µM (inactive)
GI50 (Malme-3M): > 100 µM (inactive)
GI50 (EKVX): > 100 µM (inactive)
GI50 (786-0): > 100 µM (inactive)
GI50 (UACC-257): 89.3 µM (inactive)
GI50 (NCI-H23): > 100 µM (inactive)
GI50 (SNB-19): > 100 µM (inactive)
GI50 (U-251): > 100 µM (inactive)
GI50 (OVCAR-3): > 100 µM (inactive)
GI50 (HOP-18): > 100 µM (inactive)
GI50 (K562): 40.9 µM (inactive)
GI50 (M14): > 100 µM (inactive)

COc1ccc(C(O)c2cc(OC)c(OC)c(OC)c2)cc1 (stereo not given)
GI50 (DMS-114): 6.84 µM (inactive)
GI50 (CCRF-CEM): 20 µM (inactive)
GI50 (SF-539): 21.3 µM (inactive)
GI50 (RPMI-8226): 19.9 µM (inactive)
GI50 (OVCAR-8): 30.3 µM (inactive)
GI50 (A549): 17.1 µM (inactive)
GI50 (SW-620): 6.85 µM (inactive)
GI50 (HOP-62): 26.3 µM (inactive)
GI50 (SF-295): 6.44 µM (inactive)
GI50 (SK-MEL-5): 17 µM (inactive)
GI50 (NCI-H522): 11.6 µM (inactive)
GI50 (A498): 25.9 µM (inactive)
GI50 (ACHN): 69.8 µM (inactive)
GI50 (SNB-78): 44.4 µM (inactive)
GI50 (NCI-H460): 31.6 µM (inactive)
GI50 (KM12): 7.52 µM (inactive)
GI50 (RXF 631): 30.1 µM (inactive)
GI50 (IGROV-1): 18 µM (inactive)
GI50 (CAKI-1): 37.1 µM (inactive)
GI50 (COLO 205): 8.73 µM (inactive)
GI50 (DMS-273): 4.21 µM (inactive)
GI50 (UO-31): 30.6 µM (inactive)
GI50 (SF-268): 39 µM (inactive)
GI50 (OVCAR-5): > 100 µM (inactive)
GI50 (NCI-H226): 32.4 µM (inactive)
GI50 (MOLT-4): 16.9 µM (inactive)
GI50 (HCT-15): 8.77 µM
GI50 (LOX IMVI): 17.2 µM (inactive)
GI50 (HOP-92): 27.3 µM (inactive)
GI50 (LXFL 529): 40.9 µM (inactive)
GI50 (HCT-116): 24.2 µM (inactive)
GI50 (UACC-62): 8.91 µM (inactive)
GI50 (TK-10): 31.3 µM (inactive)
GI50 (DLD-1): 38.2 µM (inactive)
GI50 (SK-MEL-28): 72.1 µM (inactive)
GI50 (M19-MEL): 21 µM (inactive)
GI50 (HL-60): 6.11 µM (inactive)
GI50 (OVCAR-4): 31.8 µM (inactive)
GI50 (HT-29): 7.16 µM (inactive)
GI50 (SN12C): 42.8 µM (inactive)
GI50 (RXF 393): 10.1 µM (inactive)
GI50 (Malme-3M): 23.7 µM (inactive)
GI50 (EKVX): 43.9 µM (inactive)
GI50 (786-0): 46.8 µM (inactive)
GI50 (UACC-257): 38.2 µM (inactive)
GI50 (SNB-19): 42.4 µM (inactive)
GI50 (U-251): 34 µM (inactive)
GI50 (OVCAR-3): 18.5 µM (inactive)
GI50 (HOP-18): 39 µM (inactive)
GI50 (K562): 3.78 µM (inactive)
GI50 (M14): 13 µM (inactive)
